No end group written: not given here.
What was measured:
[1] = test system: Hep3B cells, Epo-luciferase reporter; test: Epo-luciferase hypoxia-inducible reporter assay; assay type: cell-based; conditions: overproduction of polypeptide; 1% oxygen 18 hours
Description: FIG. 2A is a graph showing the results of luciferase and β-galactosidase assays, in which Hep3B cells were cotransfected with an Epo-luciferase reporter (100 ng), pCMV-LacZ (100 ng), and the indicated expression plasmids (300 ng). Cells were subsequently exposed to either ambient (Normoxia, stippled bars) or 1% (Hypoxia, solid bars) oxygen for 18 hours prior to assay. The results are expressed as corrected relative light units (RLU, mean of three independent transfections ±S.D.).
(§1) Reporter assays. Luciferase and β-galactosidase assays were performed as previously described (Bhattacharya et al., Genes Dev. 13:64–75, 1999). In all cases, luciferase activity was corrected for β-galactosidase activity as an internal control for transfection efficiency and global changes in transcriptional activity. Results are expressed as corrected relative light units (RLU). For each reporter experiment, at least two independent experiments were performed.
(§2) Hypoxia. Hypoxia was achieved by incubating cells in a humidified environment at 37° C. in a Cellstar three gas incubator (Harris) maintained at 10% CO2 and 1% O2. Accurate O2 and CO2 regulation was periodically verified with a Fryrite gas analyzer (Bacharach).

[2] = molecular target: T1, GST-CH1 (amino acids 302–443 of p300) (Homo sapiens, UniProt Q09472); test: In vitro protein binding assay of IVT Gal4-fused HIF-1α fragments to GST-CH1; conditions: Gal4 fusion, translated in vitro
T1 construct: made in house; host or cells: bacteria
T1 sequence (Q09472 302-443): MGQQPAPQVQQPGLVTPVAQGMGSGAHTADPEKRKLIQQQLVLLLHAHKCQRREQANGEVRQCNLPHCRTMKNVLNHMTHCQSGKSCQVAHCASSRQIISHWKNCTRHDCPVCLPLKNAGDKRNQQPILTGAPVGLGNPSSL
Text: One fifth of the total IVT product used for each binding assay is indicated (Input), along with the amount bound by GST-CH1 (Bound).
The detailed structural requirements for p300/CBP binding to HIF-1α were mapped by in vitro assays utilizing a series of GST-fused deletion mutants centered around the CH1 domain of p300, the primary HIF-1α interacting unit of that protein (Arany et al., Proc. Natl. Acad. Sci. U.S.A. 93:12969–12973, 1996; Kallio et al., EMBO J. 17:6573–6586, 1998). These mutant fusion proteins were assayed for binding to full length, iii vitro translated HIF-1α a zinc-dependent process (FIG. 1B). […] To map the minimal p300-binding domain of HIF-1α, a series of Gal4-fused truncation mutants of the C-terminus were generated. These Gal4 fusion proteins were translated in vitro and probed for their ability to bind to GST-CH1 (amino acids 302–443).
In vitro translation and in vitro protein binding assays. Except where noted, all reagents were from Sigma. In vitro transcription/translation (IVT) was performed in the presence of ^35S-methionine (NEN) using T3 or T7 polymerase coupled with rabbit reticulocyte lysates (TNT, Promega) according to the manufacturer's instructions. GST fusion proteins were produced in, and purified from, bacteria, and binding of IVT proteins was performed as previously described (Grossman et al., Mol. Cell. 2:405–415, 1998). […]

[3] = test system: SRC-1; test: Gal4-luciferase reporter, p300/CBP dependent transactivation (Gal4-SRC1); assay type: cell-based; conditions: TAD-C polypeptide overexpression, Hep3B cells
Description: (§3) FIG. 2B is a graph showing the effect of TAD-C expression on p300/CBP dependent transactivation. Hep3B cells were cotransfected with the indicated thioredoxin-constrained fusion protein expression plasmids (300 ng), the indicated Gal4-fusion proteins (20 ng), Gal4-luciferase reporter (100 ng), and pCMV-LacZ (50 ng). Where indicated, cells were exposed to hypoxia for 18 hours. The results are expressed as corrected RLU (mean of three independent transfections ±S.D.).
as §1

[4] = test system: HIF-1α; test: Immunoblot for HIF-1α abundance; assay type: cell-based; conditions: hypoxic conditions
Description: (§4) Immunoblot, ribonzuclease protection, and cell death assays. Immunoblot analyses for Gal4 (RK5C1, Santa Cruz Biotechnology), p53 (DO-1, Oncogene Research), and HIF-1α (OZ15 (Arany et al., Proc. Natl. Acad. Sci. U.S.A. 93:12969–12973, 1996)) were performed using standard techniques (Ausubel et al., Eds., Current Protocols in Molecular Biology (Wiley-Interscience, New York, 1988)). Total RNA was isolated (RNeasy, Qiagen), and ribonuclease protection assays performed utilizing a multiprobe human angiogenesis kit (RiboQuant, Pharmingen) according to the manufacturer's instructions. Cell death was measured by staining with anti-Annexin V antibody (Pharmingen) and 7-amino-actinomycin D (Pharmingen), and analyzed by flow cytometry according to the manufacturer's instructions.

[5] = test system: RAR; test: Gal4-luciferase reporter, p300/CBP dependent transactivation (Gal4-RAR); assay type: cell-based; conditions: TAD-C polypeptide overexpression, Hep3B cells
Description: as §3, §1

[6] = test system: HepG2 cells; test: Cell death by flow cytometry (Annexin V staining and vital dye exclusion); assay type: cell-based; conditions: for cell survival: versus Gal4 alone
Description: FIG. 2D is a graph showing the levels of cell death in an experiment in which HepG2 cells were infected at an MOI of 5 with retrovirus encoding the indicated Gal4 fusion proteins. Cells were exposed to either ambient or 1% oxygen for 36 hours, and then assayed for cell death by flow cytometric analysis using Annexin V staining and vital dye exclusion. The results are expressed as the mean of three independent experiments ±S.E.M. The asterisk denotes statistical significance (p=0.05) in comparison to controls.
as §2
(§5) Cell culture and retroviral infection. Tumor cell lines were obtained from the ATCC, and were cultured in DMEM supplemented with 10% FBS, penicillin, streptomycin, and L-glutamine (Gibco-BRL). Cells in logarithmic growth phase were serially infected 12 hours apart with VSV-G pseudotyped pMMP-Gal4 retroviruses to achieve a final MOI of 5 or 10, depending on the experiment. […] For pBABE-puro-VP16 or pBABE-puro-HIF-VP16, cells were infected at an MOI of <1 and selected with puromycin (2 μg/ml) for 4 days. Cells were allowed to recover for 1 day and then infected at an MOI of 5 with pMMP-Gal4 retroviruses.
as §4

[7] = test system: STAT2; test: Gal4-luciferase reporter, p300/CBP dependent transactivation (Gal4-STAT2); assay type: cell-based; conditions: TAD-C polypeptide overexpression, Hep3B cells
Description: as §3, §1

[8] = test system: MDA-MB435S cells; test: Nude mouse xenograft tumor model, MDA-MB435S; assay type: in vivo, nude mice; conditions: MDA-MB435S cells expressing the polypeptide, versus Gal4 alone or Gal4-mutant
Description: FIG. 3B is a graph showing results of the experiments described in reference to FIG. 3A for MDA-MB435S cells.
as §5
Xenograft tumor model. Nude mice (Taconic) were obtained at 6–8 weeks of age and allowed to acclimate for 1 week prior to tumor implantation. Tumor cells were allowed to recover for at least 48 hours after retroviral infection prior to implantation into nude mice. The indicated number of tumor cells was injected subcutaneously and bilaterally into the flanks of mice. Tumors were measured with calipers, and tumor volume was calculated as 0.5×L×W^2. For each cell line, at least two independent experiments were performed. […]

[9] = test system: HCT116 cells; test: Nude mouse xenograft tumor model, HCT116; assay type: in vivo, nude mice; conditions: for histological examination of the injection site / tumor: HCT116, 3 weeks of growth
Text: FIG. 3A is a graph showing the in vivo effect of TADC expression. HCT116 cells were infected at an MOI of 5 with retroviruses encoding Gal4 alone (circle), Gal4 fused with mutant TAD-C polypeptide (Gal4-MUT, square) or with wild type TAD-C polypeptide (triangle). A total of 4×10^6 cells were implanted subcutaneously into nude mice. The results are expressed as the mean ±S.D. of 8–10 independent tumors.
FIGS. 4A and 4B are a series of photographs showing that the in vivo effect of TAD-C expression can be rescued by a CH1-independent HIF-1α allele. Tumors arising from HCT116 cells infected with retrovirus encoding Gal4 fused with mutant (MUT) or wild type TAD-C polypeptide at an MOI of 5 were excised after 3 weeks of growth. Paraffin sections were stained with H&E or immunostained for Gal4 or CD31/PECAM. The subcutaneous tissue (SQ), tumor (Tum), and necrotic areas (Nec) are indicated.
FIG. 4C is a graph showing the results of experiments in which HCT116 cells were infected with either pBABE-puro-VP16 (VP16) or pBABE-puro-HIF-VP16 (HIFVP), and selected with puromycin. These cells were then infected with retrovirus encoding either Gal4-MUT or Gal4-TADC at an MOI of 5. A total of 6×10^6 cells were implanted in nude mice. Results are the mean of 8 independent tumors ±S.D.
as §5
Xenograft tumor model. Nude mice (Taconic) were obtained at 6–8 weeks of age and allowed to acclimate for 1 week prior to tumor implantation. Tumor cells were allowed to recover for at least 48 hours after retroviral infection prior to implantation into nude mice. The indicated number of tumor cells was injected subcutaneously and bilaterally into the flanks of mice. Tumors were measured with calipers, and tumor volume was calculated as 0.5×L×W^2. For each cell line, at least two independent experiments were performed. Where indicated, tumors were excised and fixed in 4% paraformaldehyde in phosphate buffered saline or minced and lysed in RIPA/300 buffer (50 mM Tris-HCl (pH 8.0), 300 mM NaCl, 1% NP40, 0.5% DOC, 0.1% SDS, 1 mM DTT, protease inhibitors). Immunostaining with anti-Gal4 (IKE, Santa Cruz Biotechnology) or anti-CD31 (MEC13.3, Pharmingen) was performed using the Vectastain ABC Elite system (Vector) according to the manufacturer's instructions.

[10] = test system: SREBP2; test: Gal4-luciferase reporter, p300/CBP dependent transactivation (Gal4-SREBP2); assay type: cell-based; conditions: TAD-C polypeptide overexpression, Hep3B cells
Description: as §3, §1

[11] = test system: VEGF mRNA in HepG2 cells; test: Ribonuclease protection assay for VEGF mRNA; assay type: cell-based; conditions: HepG2, retrovirus MOI 10, both normoxic and hypoxic conditions
Description: In this assay, HepG2 cells were infected at an MOI of 10 with retroviruses encoding Gal4 alone or Gal4 fused with wild type or mutant (MUT) TAD-C polypeptide. Cells were exposed to either ambient or 1% (Hypoxia) oxygen for 18 hours prior to preparation of total RNA.
To facilitate expression of the relevant TAD-C and mutant polypeptides, VSV-G pseudotyped retroviruses were engineered to express Gal14 carrier protein alone or Gal4 fused to either wild type or mutant TAD-C polypeptide. HepG2 cells were infected with these retroviruses at a multiplicity of infection (MOI) of 10, exposed to either normal or hypoxic conditions, and VEGF mRNA levels were determined by a ribonuclease protection assay. Equivalent expression of Gal4 and the Gal4 fused polypeptides was regularly achieved in this and related experiments (for example, see FIG. 3A, inset). […] The overall abundance of HIF-1α under hypoxic conditions was not altered by introduction of TAD-C.
Hypoxia. Hypoxia was achieved by incubating cells in a humidified environment at 37° C. in a Cellstar three gas incubator (Harris) maintained at 10% CO2 and 1% O2. […]
Immunoblot, ribonzuclease protection, and cell death assays. […] Cell death was measured by staining with anti-Annexin V antibody (Pharmingen) and 7-amino-actinomycin D (Pharmingen), and analyzed by flow cytometry according to the manufacturer's instructions.

[12] = molecular target: HIF-1α/p300 CH1 interaction (Homo sapiens, UniProt Q09472); conditions: cited from earlier work
HIF-1α/p300 CH1 interaction, sequence (Q09472 whole entry): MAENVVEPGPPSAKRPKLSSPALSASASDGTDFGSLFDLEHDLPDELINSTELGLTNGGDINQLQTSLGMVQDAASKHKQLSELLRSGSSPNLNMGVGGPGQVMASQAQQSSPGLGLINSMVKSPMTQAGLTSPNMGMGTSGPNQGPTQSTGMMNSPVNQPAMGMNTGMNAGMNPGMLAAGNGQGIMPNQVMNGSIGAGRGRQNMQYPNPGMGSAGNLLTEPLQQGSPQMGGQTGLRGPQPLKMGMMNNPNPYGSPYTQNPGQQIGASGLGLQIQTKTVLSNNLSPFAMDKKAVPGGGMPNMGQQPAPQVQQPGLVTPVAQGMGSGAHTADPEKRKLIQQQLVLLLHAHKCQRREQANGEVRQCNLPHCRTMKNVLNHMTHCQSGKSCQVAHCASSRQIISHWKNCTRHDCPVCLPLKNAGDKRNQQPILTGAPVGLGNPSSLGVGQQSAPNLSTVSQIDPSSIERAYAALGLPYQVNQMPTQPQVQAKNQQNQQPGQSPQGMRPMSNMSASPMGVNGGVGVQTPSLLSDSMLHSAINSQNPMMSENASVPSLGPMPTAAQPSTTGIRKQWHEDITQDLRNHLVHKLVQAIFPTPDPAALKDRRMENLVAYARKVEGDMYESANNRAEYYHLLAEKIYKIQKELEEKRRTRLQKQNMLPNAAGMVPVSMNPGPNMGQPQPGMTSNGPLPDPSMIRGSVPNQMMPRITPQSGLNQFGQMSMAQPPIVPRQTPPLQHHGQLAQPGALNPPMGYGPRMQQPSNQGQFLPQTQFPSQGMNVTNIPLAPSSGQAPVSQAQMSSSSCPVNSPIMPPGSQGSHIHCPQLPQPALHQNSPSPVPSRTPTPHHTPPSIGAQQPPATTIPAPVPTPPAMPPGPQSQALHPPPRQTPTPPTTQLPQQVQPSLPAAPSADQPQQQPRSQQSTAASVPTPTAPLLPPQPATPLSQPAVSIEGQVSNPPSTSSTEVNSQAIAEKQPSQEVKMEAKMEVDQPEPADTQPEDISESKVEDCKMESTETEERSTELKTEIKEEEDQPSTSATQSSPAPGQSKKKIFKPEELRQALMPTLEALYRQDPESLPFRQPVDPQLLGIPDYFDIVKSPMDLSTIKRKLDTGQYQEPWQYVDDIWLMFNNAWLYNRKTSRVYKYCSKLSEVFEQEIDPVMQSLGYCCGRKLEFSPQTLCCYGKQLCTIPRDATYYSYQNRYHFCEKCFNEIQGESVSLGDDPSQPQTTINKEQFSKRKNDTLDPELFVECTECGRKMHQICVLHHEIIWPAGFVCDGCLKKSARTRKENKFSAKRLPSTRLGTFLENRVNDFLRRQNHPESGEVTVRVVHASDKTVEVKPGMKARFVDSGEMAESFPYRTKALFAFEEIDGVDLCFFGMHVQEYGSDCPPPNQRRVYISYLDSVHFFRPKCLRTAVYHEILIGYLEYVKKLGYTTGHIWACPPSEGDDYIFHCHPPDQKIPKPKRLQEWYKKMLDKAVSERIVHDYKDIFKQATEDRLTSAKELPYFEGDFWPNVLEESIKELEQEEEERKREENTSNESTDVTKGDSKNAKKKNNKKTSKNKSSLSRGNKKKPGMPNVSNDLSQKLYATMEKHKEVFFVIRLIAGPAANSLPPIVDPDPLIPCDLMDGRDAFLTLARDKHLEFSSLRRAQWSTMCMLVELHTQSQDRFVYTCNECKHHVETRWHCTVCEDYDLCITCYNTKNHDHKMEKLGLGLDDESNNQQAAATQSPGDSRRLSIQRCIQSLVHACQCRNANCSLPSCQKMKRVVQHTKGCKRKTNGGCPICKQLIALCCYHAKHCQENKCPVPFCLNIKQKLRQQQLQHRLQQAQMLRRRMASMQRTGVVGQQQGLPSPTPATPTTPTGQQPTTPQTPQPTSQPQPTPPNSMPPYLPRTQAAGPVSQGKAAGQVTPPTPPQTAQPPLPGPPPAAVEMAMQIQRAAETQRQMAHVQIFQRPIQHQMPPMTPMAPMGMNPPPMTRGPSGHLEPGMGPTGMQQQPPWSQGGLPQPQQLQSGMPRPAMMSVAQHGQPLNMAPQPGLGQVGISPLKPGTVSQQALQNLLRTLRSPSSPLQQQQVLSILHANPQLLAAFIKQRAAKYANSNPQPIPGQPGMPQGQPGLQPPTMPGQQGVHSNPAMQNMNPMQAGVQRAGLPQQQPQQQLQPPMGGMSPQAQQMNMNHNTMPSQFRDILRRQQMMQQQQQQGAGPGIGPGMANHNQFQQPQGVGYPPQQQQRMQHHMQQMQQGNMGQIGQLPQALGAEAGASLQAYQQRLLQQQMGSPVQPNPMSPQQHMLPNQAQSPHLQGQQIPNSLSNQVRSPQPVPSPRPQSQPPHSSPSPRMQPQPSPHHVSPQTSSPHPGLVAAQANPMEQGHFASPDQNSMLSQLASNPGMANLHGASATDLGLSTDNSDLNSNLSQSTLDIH

CH1: polypeptide corresponding to the minimal HIF-1α binding domain of p300 (CH1 domain, amino acids 302–418)
hypoxia-inducible reporter activity [1]: attenuation

TAD-C polypeptide: wild type TAD-C polypeptide (amino acids 786–826 of HIF-1α), expressed fused to Gal4 or thioredoxin-constrained
binding to GST-CH1 [2]: necessary and sufficient for binding
effect on SRC-1 transcriptional activity [3]: no effect
overall abundance of HIF-1α [4]: not altered
effect on RAR transcriptional activity [5]: no effect
hypoxia-inducible reporter activity [1]: attenuation
cell death ([6]; HepG2, hypoxic conditions (1% oxygen, 36 hours), versus Gal4 alone or mutant): slightly, but significantly, increased
cell growth ([6]; HepG2, normoxic conditions): not affected
cell survival ([6]; HepG2, normoxic conditions): essentially the same
transcriptional activity of STAT2 [7]: inhibit
tumor growth [8]: significantly and reproducibly attenuated
histological examination of the injection site / tumor [9]: large areas of central necrosis with a small rim of viable tumor cells
tumor growth ([9]; HCT116, coexpression of HIF-VP16, TAD-C versus mutant polypeptide): identical tumor growth
tumor growth ([9]; HCT116, coexpression of unfused VP16, versus mutant polypeptide): attenuated
tumor growth ([9]; HCT116 cells expressing the polypeptide, versus Gal4 alone or Gal4-mutant): significantly and reproducibly attenuated
effect on SREBP2 transcriptional activity [10]: no effect
VEGF mRNA abundance [11]: reproducibly diminished

mutant TAD-C polypeptide: eight residue truncated mutant of TAD-C (amino acids 786–818 of HIF-1α), unable to bind GST-CH1 (SMDESGLPQLTSYDCEVNAPIQGSRNLLQGEEL; also: fused to Gal4; UniProt Q16665 786-818, looked up, fragment)
binding to GST-CH1 [2]: unable to bind
hypoxia-inducible reporter activity [1]: failed to exert a dominant-negative effect
cell survival ([6]; HepG2, normoxic conditions): essentially the same
histological examination of the injection site / tumor [9]: small areas of necrosis, but vast areas of viable tumor

B1: p35srj: protein with negative regulatory function on the HIF-1 pathway; binds p300/CBP, blocks HIF-1α/p300 CH1 interaction (protein, UniProt Q99967 1-270, looked up)
Cbp/p300-interacting …: MADHMMAMNHGRFPDGTNGLHHHPAHRMGMGQFPSPHHHQQQQPQHAFNALMGEHIHYGAGNMNATSGIRHAMGPGTVNGGHPPSALAPAARFNNSQFMGPPVASQGGSLPASMQLQKLNNQYFNHHPYPHNHYMPDLHPAAGHQMNGTNQHFRDCNPKHSGGSSTPGGSGGSSTPGGSGSSSGGGAGSSNSGGGSGSGNMPASVAHVPAAMLPPNVIDTDFIDEEVLMSLVIEMGLDRIKELPELWLGQNEFDFMTDFVCKQQPSRVSC
HIF-1 transactivation [12]: inhibits

Reference: US6986881B1, “Identification of compounds that modify transcriptional responses to hypoxia” (Dana-Farber Cancer Institute, Inc., priority 1999, dated 2006)
